Data on one compound can be found in patent US20220257704A1, “COMBINATION OF CHEMOTHERAPY WITH RECOMBINANT S. ROLFSII LECTIN” (Unichem Laboratories Ltd, priority 2018, published 2022).

Like-named read-outs stand apart in the source and are kept apart here.

The subject of one test is MDA-MB-231 cell line. The test is described as follows: MTT cytotoxicity assay, 48 h, alone and in combination (IC50 and Combination Index). Type of test: cell-based. The note with it: Homo sapiens, read-out: IC50 of Paclitaxel. The method, then:
The cell were kept in contact with the recombinant lectin of SEQ ID NO: 1 and the chemotherapy agent for 48 h and the cytotoxic effect (percentage cytotoxicity) was measured. The cytotoxic effect was determined by well-known colorimetric MTT assay (Mossman, T. 1983 Rapid colorimetric assay for cellular growth and survival: application to proliferation and cytotoxicity assays Journal of Immunological Methods, volume 65, pages 55-63) for assessing cell metabolic activity.
Based on percentage cytotoxicity data, IC50 values were determined using the software GraphPad Prism version 4.01.
Combination Index (CI) values were determined for each drug concentration combination. The CI values were calculated based on the IC50 values using the formula as given in below.
A study was performed to determine the effect of the concentration of the recombinant lectin represented by SEQ ID NO: 1 on the IC50 of Paclitaxel for cytotoxicity in MDA-MB-231 cells. Conversely the effect of the concentration of Paclitaxel on the IC50 of the recombinant lectin represented by SEQ ID NO: 1.
Similarly another study was performed for Carboplatin in combination with the recombinant lectin of SEQ ID NO: 1.
In a further study, MDA-MB-231 cells were treated with Paclitaxel (0.001 nM-10 nM) in combination with SEQ ID NO: 1(2.5 μg/mL-80 μg/mL) for 48 h. Similarly another set of cells were treated with Carboplatin (10 μM-1000 μM) in combination with SEQ ID NO: 1 (2.5 μg/mL-80 μg/mL).
Background: Tetrazolium dyes change colour on reduction, which living cells bring about.

Another test concerns PA-1 cell line. The description is as above. The class given is cell-based. The note with it: for IC50: Homo sapiens, read-out: IC50 of Paclitaxel.

Experimental for PA-1 cell line: In a further study, PA-1 cells were treated with Cisplatin(0.01 μM-5 μM) in combination with SEQ ID NO: 1(1 μg/mL-20 μg/mL) for 48 h. Similarly another set of cells were treated with Paclitaxel (0.01 nM-5 nM) in combination with SEQ ID NO: 1 (1 μg/mL-20 μg/mL).

A word on the IC50: it is the concentration that gives 50% inhibition. Take `CC(=O)O[C@H]1C(=O)[C@@]2(C)[C@H]([C@H](OC(=O)c3ccccc3)[C@]3(O)C[C@H](OC(=O)[C@H](O)[C@@H](NC(=O)c4ccccc4)c4ccccc4)C(C)=C1C3(C)C)[C@]1(OC(C)=O)CO[C@@H]1C[C@@H]2O` [Paclitaxel, reference compound]: the IC50 with MDA-MB-231 cell line (MDA-MB-231, SEQ ID NO: 1 at 0 μg/mL) came to 1.64 nM; in the test on MDA-MB-231 cell line (MDA-MB-231, SEQ ID NO: 1 at 5 μg/mL), 9.31 nM; in the test on MDA-MB-231 cell line (MDA-MB-231, SEQ ID NO: 1 at 10 μg/mL), 0.389 nM; in the test on MDA-MB-231 cell line (MDA-MB-231, SEQ ID NO: 1 at 20 μg/mL) it was 0.123 nM; in the test with MDA-MB-231 cell line (MDA-MB-231, SEQ ID NO: 1 at […]), 3.98 nM; in the test on PA-1 cell line (PA-1, SEQ ID NO: 1 at 0 μg/mL), 4.04 nM. Further, the IC50 in the test with PA-1 cell line (PA-1, SEQ ID NO: 1 at 1 μg/mL) worked out at 3.62 nM; in the test on PA-1 cell line (PA-1, SEQ ID NO: 1 at 5 μg/mL), 0.222 nM; with PA-1 cell line (PA-1, SEQ ID NO: 1 at […]), 3.48 nM. Besides, the “Conc. of other therapeutic agents showing synergistic effect” value in the test on PA-1 cell line (Paclitaxel with SEQ ID NO: 1, paired with SEQ ID NO: 1 conc.) lay within 0.25 to 5 nM.
